Common to all, as to assay type: cell-based
Assay [1] deals with MRC5. Nature of the assay: Anti-proliferation assay, MRC5 (normal). Conditions: Table 9, non-aryl ureas. How it is done: (§1) Cells were maintained in a 1:1 mixture of Advanced DMEM/F12 (Gibco) supplemented with non-essential amino acids, L-glutamine (2 mM), streptomycin (500 μg/mL), penicillin (100 units/mL), and 10% FBS. Cells were grown to confluence in a humidified atmosphere (37° C., 5% CO2), seeded (2000/well, 100 μL) in 96-well plates, and allowed to attach overnight. Compound at varying concentrations in DMSO (1% DMSO final concentration) was added, and cells were returned to the incubator for 72 h. At 72 h, the number of viable cells was determined using an MTS/PMS cell proliferation kit (Promega) per the manufacturer's instructions. Cells incubated in 1% DMSO were used at 100% proliferation, and values were adjusted accordingly. IC50 values were calculated from separate experiments performed in triplicate using GraphPad Prism.

In assay [2] the test system is HMLE. Nature of the assay: Anti-proliferation assay, HMLE (normal). Conditions: Table 9, non-aryl ureas. Here is the method:
as §1

Assay [3] relates to SKBr3 (estrogen receptor negative, Her2 over-expressing breast cancer cells). Put plainly: Anti-proliferation assay (MTS/PMS, 72 h), SKBr3. Here is the method:
as §1
(§2) The anti-proliferative activity of these compounds is evaluated against two breast cancer cell lines, SKBr3 (estrogen receptor negative, Her2 over-expressing breast cancer cells) and MCF-7 (estrogen receptor positive breast cancer cells).

The test system of assay [4] is MCF-7 (estrogen receptor positive breast cancer cells). Put plainly: Anti-proliferation assay (MTS/PMS, 72 h), MCF-7. How it is done:
as §1, §2

Where [5] appears, read: Homo sapiens, SK-BR-3, Table 8, biphenyl ureas, Breast Cancer, read-out: IC50 SKBr3.
Where [6] appears, read: Homo sapiens, MCF7, Table 8, biphenyl ureas, Breast Cancer, read-out: IC50 MCF-3.
The mark [7] stands for this setting: Homo sapiens, SK-BR-3, Table 4, alkylamino analogues, read-out: SKBr3.
Setting [8] is: Homo sapiens, MCF7, Table 4, alkylamino analogues, read-out: MCF-7.
[9] abbreviates: Table 3, cycloamine analogues, read-out: SKBr3.
Where [10] appears, read: Table 3, cycloamine analogues, read-out: MCF-7.
[11] abbreviates: Homo sapiens, SK-BR-3, Table 2, modified benzamide and biphenylamide derivatives (in μM), read-out: SKBr3.
The mark [12] stands for this setting: Homo sapiens, MCF7, Table 2, modified benzamide and biphenylamide derivatives (in μM), read-out: MCF-7.

The structures appear in SMILES notation. Read-outs that look alike come from different tables or passages of the source.

In the case of `Cc1c(OC2CCN(C)CC2)ccc2cc(NC(=O)NC3CCCC3)c(=O)oc12` [drawing 167], the IC50 in assay [1] and in assay [2] was greater than 25000 nM in each case.

Regarding `Cc1c(OC2CCN(C)CC2)ccc2cc(NC(=O)NC(C)(C)C)c(=O)oc12` [drawing 170], the IC50 in assay [1] is 21100 nM; in assay [2], greater than 25000 nM.

Turning to `Cc1c(OC2CCN(C)CC2)ccc2cc(NC(=O)N(C)Cc3ccccc3)c(=O)oc12` [drawing 173], the IC50 in assay [1] and in assay [2] was greater than 25000 nM each time.

Regarding `Cc1c(OC2CCN(C)CC2)ccc2cc(NC(=O)NCc3ccccc3)c(=O)oc12` [drawing 172], the IC50 in assay [1] was 20900 nM; in assay [2], greater than 25000 nM.

Consider `Cc1c(OC2CCN(C)CC2)ccc2cc(NC(=O)NC3CCCCC3)c(=O)oc12` [drawing 168], for which the IC50 in assay [1] and in assay [2] was greater than 25000 nM throughout.

Regarding `Cc1c(OC2CCN(C)CC2)ccc2cc(NC(=O)N3CCN(C)CC3)c(=O)oc12` [drawing 171], the IC50 in assay [1] and in assay [2] was greater than 25000 nM in each case.

On to `Cc1c(OC2CCN(C)CC2)ccc2cc(NC(=O)NC34CC5CC(CC(C5)C3)C4)c(=O)oc12` [drawing 169], for which the IC50 is 3800 nM in assay [1] and greater than 25000 nM in assay [2].

For the molecule `Cc1c(OC2CCN(C)CC2)ccc2cc(NC(=O)N(Cc3ccccc3)Cc3ccccc3)c(=O)oc12` [drawing 174], the IC50 amounted to 20900 nM in assay [1] and 7100 nM in assay [2].

Regarding `COc1cccc(-c2cc(NC(=O)Nc3cc4ccc(OC5CCN(C)CC5)c(C)c4oc3=O)ccc2C)c1` [CH3, OMe, 1-(3′-methoxy-6-methyl-[1,1′-biphenyl]-3-yl)-3-(8-methyl-7-((1-methylpiperidin-4-yl)oxy)-2-oxo-2H-chromen-3-yl)urea], the IC50 turned out to be 0.25 µM in assay [3] (setting [5]) and 0.21 µM in assay [4] (setting [6]).

For the molecule `COc1cccc(-c2cccc(NC(=O)Nc3cc4ccc(OC5CCN(C)CC5)c(C)c4oc3=O)c2)c1` [H, OMe, 1-(3′-methoxy-[1,1′-biphenyl]-3-yl)-3-(8-methyl-7-((1-methylpiperidin-4-yl)oxy)-2-oxo-2H-chromen-3-yl)urea], the IC50 in assay [3] (setting [5]) was 0.44 µM; in assay [4] (setting [6]), 0.37 µM.

As for `CC(C)=CCc1cc(C(=O)Nc2cc3ccc(OCCCNCC(C)C)c(C)c3oc2=O)ccc1O` [Compound 68f, 4-hydroxy-N-(7-(3-(isobutylamino)propoxy)-8-methyl-2-oxo-2H-chromen-3-yl)-3-(3-methylbut-2-en-1-yl)benzamide], the IC50 in assay [3] (setting [7]) worked out at 1.03 ± 0.02 µM; in assay [4] (setting [8]), 1.32 ± 0.06 µM.

Turning to `CC(=O)Oc1ccc(C(=O)Nc2cc3ccc(OCCC4CCCCN4)c(C)c3oc2=O)cc1CC=C(C)C` (stereo not drawn), the results for the IC50 in assay [3] (setting [9]) and in assay [4] (setting [10]) were 0.64 ± 0.06 µM and 0.71 ± 0.03 µM, respectively.

Turning to `COc1cccc(NC(=O)Nc2cc3ccc(OC4CCN(C)CC4)c(C)c3oc2=O)c1` [m-OCH3], the IC50 is 1.15 µM in assay [3] (Table 6, substituted phenyl ureas, Breast Cancer, read-out: IC50 SKBr3) and 0.96 µM in assay [4] (Table 6, substituted phenyl ureas, Breast Cancer, read-out: IC50 MCF-3).

As for `CC(C)=CCc1cc(C(=O)Nc2cc3ccc(OCCCN4CCCC4)c(C)c3oc2=O)ccc1O` [drawing 147], the figures for the IC50 in assay [3] (setting [9]) and in assay [4] (setting [10]) were 0.72 ± 0.01 µM and 0.99 ± 0.04 µM, respectively.

For the molecule `Cc1c(OC2CCN(C)CC2)ccc2cc(NC(=O)NC(c3ccccc3)c3ccccc3)c(=O)oc12` [drawing 175], the figures for the IC50 in assay [1] and in assay [2] were 15500 nM and 1600 nM, respectively.

In the case of `CC(C)=CCc1cc(C(=O)Nc2cc3ccc(OC4CCN(C)CC4)c(C)c3oc2=O)ccc1OCCCN(C)C` [Compound 24, 4-(3-(dimethylamino)propoxy)-N-(8-methyl-7-(1-methylpiperidin-4-yloxy)-2-oxo-2H-chromen-3-yl)-3-(3-methylbut-2-enyl)benzamide], the figures for the IC50 in assay [3] (setting [11]) and in assay [4] (setting [12]) were 0.25 ± 0.02 µM and 0.46 ± 0.05 µM, respectively.

In the case of `CC(C)=CCc1cc(C(=O)Nc2cc3ccc(OC4CCN(C)CC4)c(C)c3oc2=O)ccc1OCCN(C)C` [Compound 23, 4-(2-(dimethylamino)ethoxy)-N-(8-methyl-7-(1-methylpiperidin-4-yloxy)-2-oxo-2H-chromen-3-yl)-3-(3-methylbut-2-enyl)benzamide], the values for the IC50 in assay [3] (setting [11]) and in assay [4] (setting [12]) were 0.33 µM and 0.72 ± 0.08 µM, respectively.

Turning to `CC(C)=CCc1cc(C(=O)Nc2cc3ccc(OCCCN(C)[C@H](C)c4ccccc4)c(C)c3oc2=O)ccc1O` [Compound 70f, (R)-4-hydroxy-N-(8-methyl-7-(3-(methyl(1-phenylethyl)amino)propoxy)-2-oxo-2H-chromen-3-yl)-3-(3-methylbut-2-en-1-yl)benzamide], the IC50 in assay [3] (Homo sapiens, SK-BR-3, Table 5, alkylether derivatives with cyclic N-substitutions, read-out: SKBr3) was 1 ± 0.31 µM; in assay [4] (Homo sapiens, MCF7, Table 5, alkylether derivatives with cyclic N-substitutions, read-out: MCF-7), 1.45 ± 0.2 µM.

For `CC(C)=CCc1cc(C(=O)Nc2cc3ccc(OCCCNC(C)C)c(C)c3oc2=O)ccc1O` [Compound 68g, 4-hydroxy-N-(7-(3-(isopropylamino)propoxy)-8-methyl-2-oxo-2H-chromen-3-yl)-3-(3-methylbut-2-en-1-yl)benzamide], the IC50 is 0.75 ± 0.26 µM in assay [3] (setting [7]) and 0.74 ± 0.16 µM in assay [4] (setting [8]).

With `CC(=O)Oc1ccc(C(=O)Nc2cc3ccc(OCC4CCCN(C)C4)c(C)c3oc2=O)cc1CC=C(C)C` (stereo not drawn), the IC50 is 0.74 ± 0.01 µM in assay [3] (setting [9]) and 1.65 ± 0.11 µM in assay [4] (setting [10]).

For `CC(C)=CCc1cc(C(=O)Nc2cc3ccc(OC4CCN(C)CC4)c(C)c3oc2=O)ccc1OC1CCN(C)CC1` [Compound 25, N-(8-methyl-7-(1-methylpiperidin-4-yloxy)-2-oxo-2H-chromen-3-yl)-3-(3-methylbut-2-enyl)-4-(1-methylpiperidin-4-yloxy)benzamide], the IC50 in assay [3] (setting [11]) came out at 0.21 µM; in assay [4] (setting [12]) it was 0.47 ± 0.081 µM.

Regarding `Cc1c(OC2CCN(C)CC2)ccc2cc(NC(=O)NCc3ccc(Oc4ccccc4)cc3)c(=O)oc12`, the IC50 came to 0.23 ± 0.08 µM in assay [3] (Table 9, non-aryl ureas, Breast Cancer, read-out: IC50 SKBr3) and 0.38 ± 0.04 µM in assay [4] (Table 9, non-aryl ureas, Breast Cancer, read-out: IC50 MCF-3).

Regarding `COc1ccc(NC(=O)Nc2cc3ccc(OC4CCN(C)CC4)c(C)c3oc2=O)cc1-c1ccccc1` [OMe, H, 1-(6-methoxy-[1,1′-biphenyl]-3-yl)-3-(8-methyl-7-((1-methylpiperidin-4-yl)oxy)-2-oxo-2H-chromen-3-yl)urea], the IC50 was 0.45 µM in assay [3] (setting [5]) and 0.93 µM in assay [4] (setting [6]).

As for `CC(C)=CCc1cc(C(=O)Nc2cc3ccc(OCC4CCCNC4)c(C)c3oc2=O)ccc1O` (stereo not drawn), the IC50 in assay [3] (setting [9]) is 0.6 ± 0.01 µM; in assay [4] (setting [10]) it was 0.79 ± 0.1 µM.

Take `C#CCOc1ccc(C(=O)Nc2cc3ccc(OC4CCN(C)CC4)c(C)c3oc2=O)cc1CC=C(C)C` [Compound 18, N-(8-methyl-7-(1-methylpiperidin-4-yloxy)-2-oxo-2H-chromen-3-yl)-3-(3-methylbut-2-enyl)-4-(prop-2-ynyloxy)benzamide]: the IC50 was 1.4 ± 0.11 µM in assay [3] (Homo sapiens, SK-BR-3, Table 1, modified benzamide coumarin derivatives, read-out: SKBr3) and 1.12 ± 0.16 µM in assay [4] (Homo sapiens, MCF7, Table 1, modified benzamide coumarin derivatives, read-out: MCF-7).

For `CC(C)=CCc1cc(C(=O)Nc2cc3ccc(OCCCN(C)C4CCCCC4)c(C)c3oc2=O)ccc1O` [Compound 70b], the IC50 in assay [3] (Table 5, alkylether derivatives with cyclic N-substitutions, read-out: SKBr3) amounted to 0.97 ± 0.03 µM; in assay [4] (Table 5, alkylether derivatives with cyclic N-substitutions, read-out: MCF-7) it was 1.08 ± 0.07 µM.

Turning to `CCN(CC)CCCOc1ccc2cc(NC(=O)c3ccc(O)c(CC=C(C)C)c3)c(=O)oc2c1C` [Compound 68c], the IC50 in assay [3] (Table 4, alkylamino analogues, read-out: SKBr3) is 4.9 ± 0.42 µM; in assay [4] (Table 4, alkylamino analogues, read-out: MCF-7), 6.39 ± 0.04 µM.

(Values after patent US10030006B2, “Coumarin based Hsp90 inhibitors with urea and ether substituents” (University of Kansas, priority 2013, dated 2018).)
